Data published in BindingDB's records for doi:10.1021/jm00160a056 (1986).

Target: Trifunctional purine biosynthetic protein adenosine-3 (Mus musculus) (UniProt Q64737)
Test: Compound was evaluated for the inhibition of GAR transformylase isolated from murine lymphoma cell line L5178Y

Chain of Trifunctional purine biosynthetic protein adenosine-3 (Mus musculus) (Q64737 whole entry, looked up): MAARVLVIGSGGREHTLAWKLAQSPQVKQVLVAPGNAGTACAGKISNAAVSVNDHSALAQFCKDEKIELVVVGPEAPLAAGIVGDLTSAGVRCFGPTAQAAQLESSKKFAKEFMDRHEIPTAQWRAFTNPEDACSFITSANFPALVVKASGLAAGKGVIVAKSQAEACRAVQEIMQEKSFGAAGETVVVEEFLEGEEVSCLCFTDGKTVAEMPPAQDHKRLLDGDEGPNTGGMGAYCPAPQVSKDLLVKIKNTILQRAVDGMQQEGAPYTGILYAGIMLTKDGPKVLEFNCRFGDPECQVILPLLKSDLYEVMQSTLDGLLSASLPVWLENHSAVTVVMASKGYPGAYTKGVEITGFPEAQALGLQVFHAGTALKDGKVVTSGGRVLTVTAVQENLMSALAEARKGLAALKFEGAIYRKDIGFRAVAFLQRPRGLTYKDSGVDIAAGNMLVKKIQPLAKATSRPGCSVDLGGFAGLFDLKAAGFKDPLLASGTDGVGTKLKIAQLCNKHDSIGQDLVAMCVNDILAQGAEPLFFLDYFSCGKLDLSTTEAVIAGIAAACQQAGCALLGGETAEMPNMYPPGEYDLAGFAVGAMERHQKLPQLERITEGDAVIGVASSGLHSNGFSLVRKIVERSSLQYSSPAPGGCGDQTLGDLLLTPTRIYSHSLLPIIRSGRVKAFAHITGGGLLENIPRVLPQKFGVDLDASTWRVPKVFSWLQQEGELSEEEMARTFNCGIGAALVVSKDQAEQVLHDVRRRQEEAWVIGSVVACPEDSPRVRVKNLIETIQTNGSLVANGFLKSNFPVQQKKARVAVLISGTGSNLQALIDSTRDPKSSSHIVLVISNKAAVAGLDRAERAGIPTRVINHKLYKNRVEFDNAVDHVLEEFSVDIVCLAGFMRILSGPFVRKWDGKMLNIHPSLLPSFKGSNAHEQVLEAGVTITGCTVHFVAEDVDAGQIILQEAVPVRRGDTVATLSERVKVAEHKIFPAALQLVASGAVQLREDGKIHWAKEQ

Ki [nM] | Compound
2000 | Nc1nc2ccc(CNc3ccc(C(=O)NC(CCC(=O)O)C(=O)O)cc3)cc2c(=O)[nH]1 (configuration not stated)
1300 | CC(=O)N(Cc1ccc2nc(N)[nH]c(=O)c2c1)c1ccc(C(=O)NC(CCC(=O)O)C(=O)O)cc1 (configuration not stated) [2-{4-[Acetyl-(2-amino-4-oxo-3,4-dihydro-quinazolin-6-ylmethyl)-amino]-benzoylamino}-pentanedioic acid]
